# Laboratory results: the supplement of paper PMC10307832
# Key:
# Assay in all cases: relative viability (nuclei count vs DMSO), 5 days (fraction); higher = more cells survive
# [1] = compound: COc1cc(-c2nn([C@H]3CC[C@H](N4CCN(C(C)=O)CC4)CC3)c3ncnc(N)c23)ccc1NC(=O)c1cc2ccccc2n1C + COc1cccc2cc(-c3nc([C@H]4CC[C@H](C(=O)O)CC4)n4ncnc(N)c34)[nH]c12 [OSI-027] (partner 0.5 µM)
# Method in brief: (§1)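 Lung cancer cell lines were pin-tool dosed in 1536-well plates on the day after seeding, with either a lone drug or a fixed anchor-drug dose plus five library-drug doses (not always all listed) in √10 steps. Nuclei were counted on 4× images after 5 days. Relative viability is the ratio of treated-well to vehicle-well nuclei counts, with each value a median of duplicate plates.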
# [2] = compound: COc1cc(-c2nn([C@H]3CC[C@H](N4CCN(C(C)=O)CC4)CC3)c3ncnc(N)c23)ccc1NC(=O)c1cc2ccccc2n1C + COc1cc2c(Oc3ccc(NC(=O)C4(C(=O)Nc5ccc(F)cc5)CC4)cc3F)ccnc2cc1OCCCN1CCOCC1 [Foretinib] (partner 0.25 µM)
# Method in brief: as §1
# [3] = compound: CO[C@@H]1[C@H](N(C)C(=O)c2ccccc2)C[C@H]2O[C@]1(C)n1c3ccccc3c3c4c(c5c6ccccc6n2c5c31)C(=O)NC4 [Midostaurin] + CC(=O)c1c(C)c2cnc(Nc3ccc(N4CCNCC4)cn3)nc2n(C2CCCC2)c1=O [Palbociclib] (partner 0.5 µM)
# Method in brief: as §1
# [4] = compound: COc1cc(-c2nn([C@H]3CC[C@H](N4CCN(C(C)=O)CC4)CC3)c3ncnc(N)c23)ccc1NC(=O)c1cc2ccccc2n1C + CS(=O)(=O)N1CCN(Cc2cc3nc(-c4cccc5[nH]ncc45)nc(N4CCOCC4)c3s2)CC1 [Pictilisib] (partner 1 µM)
# Method in brief: as §1
# [5] = compound: CO[C@@H]1[C@H](N(C)C(=O)c2ccccc2)C[C@H]2O[C@]1(C)n1c3ccccc3c3c4c(c5c6ccccc6n2c5c31)C(=O)NC4 [Midostaurin] + C[C@]1(O)C[C@@H](c2nc(-c3ccc4ccc(-c5ccccc5)nc4c3)c3c(N)nccn32)C1 [Linsitinib] (partner 1 µM)
# Method in brief: as §1
cell line,measurement,setting,value
UMC-11,relative viability,[1]; first compound 0.0128 µM,0.531
same,relative viability,[1]; first compound 0.04048 µM,0.463
same,relative viability,[1]; first compound 0.128 µM,0.474
same,relative viability,[1]; first compound 1.28 µM,0.414
same,relative viability,[2]; first compound 0.0128 µM,0.967
same,relative viability,[2]; first compound 0.04048 µM,1.07
same,relative viability,[2]; first compound 0.128 µM,0.943
same,relative viability,[2]; first compound 1.28 µM,0.806
same,relative viability,[3]; first compound 0.01 µM,0.352
same,relative viability,[3]; first compound 0.03162 µM,0.391
same,relative viability,[3]; first compound 0.1 µM,0.364
same,relative viability,[3]; first compound 0.3162 µM,0.284
same,relative viability,[4]; first compound 0.0128 µM,0.89
same,relative viability,[4]; first compound 0.04048 µM,0.788
same,relative viability,[4]; first compound 0.128 µM,0.767
same,relative viability,[4]; first compound 1.28 µM,0.71
same,relative viability,[5]; first compound 0.01 µM,0.984
same,relative viability,[5]; first compound 0.03162 µM,0.998
same,relative viability,[5]; first compound 0.1 µM,0.95
same,relative viability,[5]; first compound 0.3162 µM,0.586
